The source of these data is publication PMC6646235, “Structure and ligand binding of As-p18, an extracellular fatty acid binding protein from the eggs of a parasitic nematode” (Bioscience Reports, 2019).

Molecules are shown by their SMILES.

In assay [1] the target is T1, As-p18 (Ascaris suum, UniProt P55776).
T1 construct: mature protein without secretion signal peptide, N-terminal His-tag (pQE-30/As-p18), expressed in E. coli BL21 (DE3); monomer; delipidated by RP-HPLC for NMR, co-purified lipid retained for crystal
T1 sequence (P55776 21-163): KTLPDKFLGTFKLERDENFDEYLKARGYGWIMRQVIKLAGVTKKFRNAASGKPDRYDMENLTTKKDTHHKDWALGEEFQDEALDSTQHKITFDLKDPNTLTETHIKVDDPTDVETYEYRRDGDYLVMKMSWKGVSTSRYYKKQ
The experiment in a line: isothermal titration calorimetry; complex also solved by solution NMR. The format is binding.

In assay [2] the target is T1, As-p18. Kind of assay: X-ray crystallography at […] Å; GC-MS of co-purified lipid. The note with it: co-purified from E. coli; pH 4.5 crystal; ligand density incomplete, vaccenate modelled. Format: binding.

`CCCCCCCC/C=C\CCCCCCCC(=O)O` [oleic acid] returned a Kd on As-p18 [1] of 3.1 µM.
`CCCCCC/C=C\CCCCCCCCCC(=O)O` [vaccenate, cis-11-octadecenoate]: the “X-ray crystallography at 2.3 Å; GC-MS of co-purified lipid” value on As-p18 [2] is on record as “The two X-ray structures of As-p18 in complex with vaccenate”.
